{
  "source": "paper PMC7114507",
  "about": "(Virus Research, 2010)",
  "biological_target": "T1, recHE4 (Isavirus salaris, UniProt Q9J0Y0)",
  "T1 sequence (Q9J0Y0 17-353)": "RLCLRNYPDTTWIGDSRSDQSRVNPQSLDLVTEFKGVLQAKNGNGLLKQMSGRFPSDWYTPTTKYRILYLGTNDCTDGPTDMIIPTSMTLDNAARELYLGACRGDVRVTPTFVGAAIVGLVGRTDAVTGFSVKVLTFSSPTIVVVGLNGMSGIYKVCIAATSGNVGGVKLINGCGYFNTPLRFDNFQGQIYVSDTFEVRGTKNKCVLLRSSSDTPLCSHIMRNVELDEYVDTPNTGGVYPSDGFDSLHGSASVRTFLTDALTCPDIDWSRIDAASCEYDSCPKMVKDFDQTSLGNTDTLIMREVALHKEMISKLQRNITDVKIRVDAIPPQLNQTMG",
  "assay": "fluorescence acetylesterase assay, recHE on cobalt beads",
  "format": "biochemical",
  "settings": "0-500 uM substrate, PBS pH 7.4, RT; bead-bound",
  "data": [
    {"smiles": "CC(=O)Oc1ccc2c(C)cc(=O)oc2c1", "note": "[4-methylumbelliferyl acetate]", "values": [
      {"measurement": "fluorescence acetylesterase assay, recHE on cobalt beads", "result": "recHE4 and recHE7 proteins exhibit similar acetylesterase activities with all substrate concentrations tested"}
    ]}
  ]
}
